One assay addresses mel-1a receptor expressed in CHO cell (Homo sapiens, UniProt P48039). As to conditions: after 2 min stimulation; mel-1a/CHO cells.
Chain of mel-1a receptor expressed in CHO cell (P48039 whole entry): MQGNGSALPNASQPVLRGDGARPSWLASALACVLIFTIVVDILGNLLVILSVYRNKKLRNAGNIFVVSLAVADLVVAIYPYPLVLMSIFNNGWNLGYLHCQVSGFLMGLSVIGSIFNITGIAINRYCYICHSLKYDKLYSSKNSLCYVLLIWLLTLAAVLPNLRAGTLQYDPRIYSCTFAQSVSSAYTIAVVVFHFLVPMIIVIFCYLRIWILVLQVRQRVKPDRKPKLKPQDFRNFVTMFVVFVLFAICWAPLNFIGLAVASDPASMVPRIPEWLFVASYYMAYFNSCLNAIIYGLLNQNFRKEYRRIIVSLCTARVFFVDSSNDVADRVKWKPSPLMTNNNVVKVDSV
Procedure: mel-1a/CHO cells were cultivated in advance in the DMEM medium containing 800 μg/ml G418 and 10% FBS, and mel-1a/CHO cells in the logarithmic growth phase were washed with PBS, treated with trypsin and diluted with the same medium to a concentration of 2.5×10^5/ml. 1 ml of cell suspension was seeded in each cell cup for cytosensor, and the cell cups were filled on the outside with 2 ml of the medium and then left on standing overnight udner th conditions of 5% CO2/37° C.
While paying attention not to cause air bubbles to mingle, a spacer was disposed on the bottom of each cell cup with use of sterile tweezers on the following day. When air bubbles were below the spacer, they were to be removed with a pipette. A capsule insert was placed in each cup, while preventing air bubbles from mingling, and the medium in the 1 ml portion was added from the top to thereby bury the cup in the medium, whereby it was to be ascertained that no air bubble had been drained or mingled into the spacer and insert.
Powdered low buffer RPM1 1640 medium (MDC) was dissolved in 1 liter of distilled water for tissue culture (Cosmo Bio), and the solution was adjusted to pH 7.4 and then suction-filtered through a 0.45 μm filter.
The Cyto software package of a personal computer was started up. A measuring medium was set in a ctyosensor, and fluid feeding system was switched for the measuring medium. The fluid inside the sensor chamber was aspirated out, and the measuring medium was placed in the 1.5 ml portion in to each cell, where a capsule cell prepared in advance was disposed while preventing air bubbles from mingling. The sensor chamber was connected to a cytosensor without causing air bubbles to mingle.
Each of the prepared samples was set on the cytosensor under the conditions where the metabolic rate was stabilized. Measurement with the cytosensor was performed by switching the fluid feeding from the measuring medium to the sample solution to stimulate the cells, then putting the fluid-feeding back to the measuring medium and measuring a change caused in metabolic rate of the cells, whereby stimulation with the sample was effected for 2 min. and subsequently the measuring medium continued to be fluid-fed until the metabolic rate was returned to the level determined prior to stimulation with the sample. […] Accordingly, stimulation with the sample was given at a regular interval of 40 min.
The cytosensor was designed to detect the release outside the cell of hydrogen ions, which is understood to reflect the metabolic activity of the cell, as a rate of change in extracellular hydrogen ion concentration. Upon binding of a ligand to the receptor expressed on the cell surface, intracellular signal transduction takes place, resulting in increased cellular metabolic activity to thereby release hydrogen ions outside the cell.
For `COc1ccc2[nH]cc(CCNC(C)=O)c2c1` [melatonin], the “time for the metabolic activity to decline to the level prior to stimulation” value is listed as “about 40 min”.

The assay is the same for the next values; noted with them: mel-1a/CHO cells, cytosensor (FIG. 11).
In the case of `COc1ccc2[nH]cc(CCN)c2c1` [5-methoxytryptamine], the “increase in metabolic rate via the mel-1a receptor (responsiveness, specificity)” value (“increase” below) is given as “not to bring about an increase in metabolic rate”.

As for `COc1ccc2[nH]cc(C[C@H](N)C(=O)O)c2c1` [5-methoxytryptophan], the “increase” value is “not to bring about an increase in metabolic rate”. Still for that read-out and setting: then `CC(=O)NCCc1c[nH]c2ccc(O)cc12` [N-acetylserotonin], with “not to bring about an increase in metabolic rate”; and `COc1ccc2[nH]cc(CCNC(C)=O)c2c1` [melatonin], with “responds specifically to melatonin alone”.

Regarding `NCCc1c[nH]c2ccc(O)cc12` [serotonin], the “increase” value is listed as “not to bring about an increase in metabolic rate”. As for `N[C@@H](Cc1c[nH]c2ccccc12)C(=O)O` [tryptophan], the “increase” value is reported as “not to bring about an increase in metabolic rate”.

The record behind these values is patent publication US20030044909A1, “Melatonin-receptor expression cells and thier uses” (JCR PHARMACEUTICALS Co., Ltd., priority 1997, published 2003).
